# Reference: patent publication US12077503B2, “Substituted cyclic amides and their use as herbicides” (FMC CORPORATION, priority 2015, dated 2024)
# Like-named read-outs stand apart in the source and are kept apart here.
# Assays:
# Type in all cases: in vivo
# [1] = test system: pigweed (Amaranthus retroflexus); assay: Test A preemergence; details: Amaranthus retroflexus, pre-emergence, 240 h; for pest or weed control at 125 g/ha: 125 g ai/ha; for pest or weed control at 500 g/ha: 500 g ai/ha
# [2] = test system: Galium (catchweed bedstraw, Galium aparine); assay: Test A postemergence; details: Galium, post-emergence, 240 h, 125 g ai/ha
# In short: (§1)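 Treatment is preemergence as a directed soil spray after planting, or postemergence at the one- to two-leaf stage, with test chemical in a non-phytotoxic solvent mixture plus surfactant. Plants stay in the greenhouse about 10 d before visual injury scoring on a 0 to 100 scale versus untreated controls.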
# [3] = test system: Kochia (Kochia scoparia); assay: Test A postemergence; details: Bassia scoparia, post-emergence, 240 h, 125 g ai/ha
# In short: as §1
# [4] = test system: barnyardgrass (Echinochloa crus-galli); assay: Test A postemergence; details: Echinochloa crus-galli, post-emergence, 240 h, 125 g ai/ha
# In short: as §1
# [5] = test system: blackgrass (Alopecurus myosuroides); assay: Test A postemergence; details: Alopecurus myosuroides, post-emergence, 240 h, 125 g ai/ha
# In short: as §1
# [6] = test system: corn (Zea mays); assay: Test A postemergence; details: Zea mays, post-emergence, 240 h, 125 g ai/ha
# In short: as §1
# [7] = test system: giant foxtail (Setaria faberii); assay: Test A postemergence; details: Setaria faberi, post-emergence, 240 h, 125 g ai/ha
# In short: as §1
# [8] = test system: pigweed (Amaranthus retroflexus); assay: Test A postemergence; details: Amaranthus retroflexus, post-emergence, 240 h, 125 g ai/ha
# In short: as §1
# [9] = test system: ragweed (common ragweed, Ambrosia elatior); assay: Test A postemergence; details: Ambrosia artemisiifolia, post-emergence, 240 h, 125 g ai/ha
# In short: as §1
# [10] = test system: ryegrass, Italian (Italian ryegrass, Lolium multiflorum); assay: Test A postemergence; details: Lolium multiflorum, post-emergence, 240 h, 125 g ai/ha
# In short: as §1
# [11] = test system: wheat (Triticum aestivum); assay: Test A postemergence; details: Triticum aestivum, post-emergence, 240 h, 125 g ai/ha
# In short: as §1
# [12] = test system: barnyardgrass (Echinochloa crus-galli); assay: Test B flooded paddy test; details: Echinochloa crus-galli, Flood, 250 g ai/ha; scale of 0 to 100 where 0 is no effect and 100 is complete control; read-out: Barnyardgrass plant response rating
# In short: (§2)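 Visual ratings (0 none to 100 complete control) are relative to untreated plants, taken 13–15 d after treatment in a greenhouse. Test material went straight into floodwater standing 3 cm above the soil, kept constant, on plants at the 2-leaf stage.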
# [13] = test system: ducksalad (Heteranthera limosa); assay: Test B flooded paddy test; details: Heteranthera limosa, Flood, 250 g ai/ha; scale of 0 to 100 where 0 is no effect and 100 is complete control; read-out: Ducksalad plant response rating
# In short: as §2
# [14] = test system: rice (Oryra sativa); assay: Test B flooded paddy test; details: Oryza sativa, Flood, 250 g ai/ha; scale of 0 to 100 where 0 is no effect and 100 is complete control; read-out: Rice plant response rating
# In short: as §2
# [15] = test system: sedge, umbrella (small-flower umbrella sedge, Cyperus difformis); assay: Test B flooded paddy test; details: Cyperus difformis, Flood, 250 g ai/ha; scale of 0 to 100 where 0 is no effect and 100 is complete control; read-out: Sedge, Umbrella plant response rating
# In short: as §2
compound,measurement,setting,value
O=C1NC[C@H](c2cccc(C(F)(F)F)c2)[C@H]1C(=O)Nc1cccc2c1OC(F)(F)O2 [Compound 827],pest or weed control at 125 g/ha,"[1]; preemergence, 0 to 100 scale where 0 is no effect and 100 is complete control, read-out: Pigweed plant response rating",20%
same,pest or weed control at 500 g/ha,"[1]; Preemergence, visual injury vs untreated controls after approximately 10 d, read-out: Pigweed plant response rating (0 to 100 scale where 0 is no effect and 100 is complete control)",40%
same,pest or weed control at 125 g/ha,"[2]; postemergence, visual injury rating after approximately 10 d, read-out: Galium plant response rating (0 to 100 scale, 0 no effect, 100 complete control)",40%
same,pest or weed control at 125 g/ha,"[3]; postemergence, visual injury rating after approximately 10 d, read-out: Kochia plant response rating (0 to 100 scale, 0 no effect, 100 complete control)",0%
same,pest or weed control at 125 g/ha,"[4]; postemergence, visual injury rating after approximately 10 d, read-out: Barnyardgrass plant response rating (0 to 100 scale, 0 no effect, 100 complete control)",70%
same,pest or weed control at 125 g/ha,"[5]; postemergence, visual injury rating after approximately 10 d, read-out: Blackgrass plant response rating (0 to 100 scale, 0 no effect, 100 complete control)",40%
same,plant injury at 125 g/ha,"[6]; postemergence, visual injury rating after approximately 10 d, read-out: Corn plant response rating (0 to 100 scale, 0 no effect, 100 complete control)",20%
same,pest or weed control at 125 g/ha,"[7]; postemergence, visual injury rating after approximately 10 d, read-out: Foxtail, Giant plant response rating (0 to 100 scale, 0 no effect, 100 complete control)",80%
same,pest or weed control at 125 g/ha,"[8]; postemergence, visual injury rating after approximately 10 d, read-out: Pigweed plant response rating (0 to 100 scale, 0 no effect, 100 complete control)",0%
same,pest or weed control at 125 g/ha,"[9]; postemergence, visual injury rating after approximately 10 d, read-out: Ragweed plant response rating (0 to 100 scale, 0 no effect, 100 complete control)",0%
same,pest or weed control at 125 g/ha,"[10]; postemergence, visual injury rating after approximately 10 d, read-out: Ryegrass, Italian plant response rating (0 to 100 scale, 0 no effect, 100 complete control)",0%
same,plant injury at 125 g/ha,"[11]; postemergence, visual injury rating after approximately 10 d, read-out: Wheat plant response rating (0 to 100 scale, 0 no effect, 100 complete control)",20%
same,pest or weed control at 250 g/ha,[12],30%
same,pest or weed control at 250 g/ha,[13],75%
same,pest or weed control at 250 g/ha,[14],0%
same,pest or weed control at 250 g/ha,[15],0%
Cc1ccc([C@H]2CNC(=S)[C@@H]2C(=O)Nc2ccccc2F)cc1 (racemic) [Compound 945],pest or weed control at 125 g/ha,"[1]; Preemergence, visual injury rating after approximately 10 d, read-out: Pigweed plant response rating (0 to 100 scale, 0 is no effect, 100 is complete control)",0%
same,pest or weed control at 500 g/ha,"[1]; preemergence, visual injury rating about 10 d after treatment, 0 to 100 scale (0 no effect, 100 complete control), read-out: Pigweed plant response rating",0%
same,pest or weed control at 125 g/ha,"[2]; Postemergence, visual injury after approximately 10 d, 0 to 100 scale where 0 is no effect and 100 is complete control, read-out: Plant response rating, Galium",20%
same,pest or weed control at 125 g/ha,"[3]; Postemergence, visual injury after approximately 10 d, 0 to 100 scale where 0 is no effect and 100 is complete control, read-out: Plant response rating, Kochia",0%
same,pest or weed control at 125 g/ha,"[4]; Postemergence, visual injury after approximately 10 d, 0 to 100 scale where 0 is no effect and 100 is complete control, read-out: Plant response rating, Barnyardgrass",80%
same,pest or weed control at 125 g/ha,"[5]; Postemergence, visual injury after approximately 10 d, 0 to 100 scale where 0 is no effect and 100 is complete control, read-out: Plant response rating, Blackgrass",0%
same,"Corn plant response rating (crop injury, 0 = no effect, 100 = complete kill) at 125 g/ha","[6]; Postemergence, visual injury after approximately 10 d, 0 to 100 scale where 0 is no effect and 100 is complete control",0%
same,pest or weed control at 125 g/ha,"[7]; Postemergence, visual injury after approximately 10 d, 0 to 100 scale where 0 is no effect and 100 is complete control, read-out: Plant response rating, Foxtail, Giant",0%
same,pest or weed control at 125 g/ha,"[8]; Postemergence, visual injury after approximately 10 d, 0 to 100 scale where 0 is no effect and 100 is complete control, read-out: Plant response rating, Pigweed",0%
same,pest or weed control at 125 g/ha,"[9]; Postemergence, visual injury after approximately 10 d, 0 to 100 scale where 0 is no effect and 100 is complete control, read-out: Plant response rating, Ragweed",0%
same,pest or weed control at 125 g/ha,"[10]; Postemergence, visual injury after approximately 10 d, 0 to 100 scale where 0 is no effect and 100 is complete control, read-out: Plant response rating, Ryegrass, Italian",0%
same,plant injury at 125 g/ha,"[11]; Postemergence, visual injury after approximately 10 d, 0 to 100 scale where 0 is no effect and 100 is complete control, read-out: Plant response rating, Wheat",0%
same,pest or weed control at 250 g/ha,[12],0%
same,pest or weed control at 250 g/ha,[13],85%
same,pest or weed control at 250 g/ha,[14],0%
same,pest or weed control at 250 g/ha,[15],0%
